Source: ChEMBL document CHEMBL1157539, “Thousands of chemical starting points for antimalarial lead identification” (Nature, 2010)

tested on: Plasmodium falciparum; test: GSK_TCMDC: Inhibition of Plasmodium falciparum 3D7 in whole erythrocytes, using parasite LDH activity as an index of growth.; assay type: functional, organism-based; details: Plasmodium falciparum, 3D7

Compound | XC50
COc1ccc2nc(-c3ccccc3)cc(N/N=C/c3ccc([N+](=O)[O-])cc3)c2c1 | 149 nM
Oc1ccccc1CNCC(O)c1cccc(C(F)(F)F)c1 (centres undefined) | 526 nM
O=C(Nc1cccc(-c2cccc(-c3nc4cc(C(F)(F)F)ccc4[nH]3)c2)c1)c1cccnc1Cl | 657 nM
COc1ccc(-c2nc3c4ccccc4c4ccc(I)cc4c3[nH]2)cc1 | 1100 nM
Cc1ccc2[nH]c3ccccc3c(=O)c2c1 | 863 nM
CCCCC1(NC(=O)[C@@H](Nc2ccc(C#N)c3ccccc23)C2CCCCC2)CCCCC1 | 1120 nM
Clc1ccc(-c2nc3cc(-c4ccc5nc(-c6ccc(Cl)cc6)[nH]c5c4)ccc3[nH]2)cc1 | 241 nM
CC1CCCC(NC(=O)CCOc2ccccc2)C1 (centres undefined) | 882 nM
O=C(NCCCCN1CCCC2c3cccc(O)c3CCC21)c1ccc(-c2ccccc2)cc1 (centres undefined) | 1170 nM
CCOCCCn1c(=N)c(C(=O)NCc2ccc(OC)cc2)cc2c(=O)n3cccc(C)c3nc21 | 1060 nM
CC(C)(C)NC(=O)c1ccc(Oc2ccc(OC(F)(F)F)cc2)c(NC(=O)C(C)(C)C)c1 | 977 nM
O=c1cc(NCCCNCc2cc(C(F)(F)F)ccc2Cl)[nH]c2ccccc12 | 1020 nM
Fc1ccc2[nH]c(-c3ccc(-c4cccc(CN5CCN(c6ccncc6)CC5)c4)cc3)nc2c1 | 85.7 nM
CC1(C)CCCN(C(=O)Cc2ccc3c(c2)CCCC3)C1CN1CC=CC1 (centres undefined) | 720 nM
CN1CCN(Cc2ccc(-c3ccc4c(Nc5cc(O)c(Cl)cc5F)ccnc4c3)o2)CC1 | 110 nM
CN(CCCNCc1cccc2ccccc12)CCCNCc1cccc2ccccc12 | 722 nM
O=C(Nc1cccc(CN2CCCN(CC3CC3)CC2)c1)c1ccc(-c2ccccc2)cc1 | 930 nM
CC[C@H](NC(=O)c1c(N)c(-c2sccc2Cl)nc2ccccc12)c1ccccc1 | 912 nM
Cc1cc(O)c(-c2ccc(OCc3ccc(Cl)cc3)cc2)c(C)n1 | 732 nM
CCOc1c(OC)ccc2c1CCN(CCN1CCC(CNC(=O)c3ccc(-c4ccc(C#N)cc4)cc3)CC1)C2 | 1080 nM
NCc1ccc(CNCc2cccc(-c3ccc(-c4nc5ccccc5[nH]4)cc3)c2)cc1 | 717 nM
Cc1noc(-c2ccc(NC[C@@H](C)NC[C@H](O)c3cccc(Cl)c3)cc2)n1 | 756 nM
CCCCc1cc(NCC)nc(Nc2cccc(OC)c2)n1 | 922 nM
Fc1cccc(Cn2ncc3cc(Nc4ncnc5sc(C#Cc6ncc[nH]6)cc45)ccc32)c1 | 1800 nM
CS(=O)(=O)c1ccccc1CNC(=O)c1ccc(-c2ccc(-c3nc4cc(C(F)(F)F)ccc4[nH]3)s2)cc1 | 236 nM

Compound | XC50
N#Cc1ccc(C=NNc2nc3ccccc3[nH]2)cc1 | 1000 nM
COc1ccc2[nH]c(C)cc(=NN=Cc3cc(OC)c(OC)cc3OC)c2c1 | 739 nM
CN1CCN(CCc2ccc3nc(-c4csc(Cc5cc(Cl)ccc5OCc5ccccc5)n4)[nH]c3c2)CC1 | 750 nM
O=[N+]([O-])c1ccc2c(c1)c1ccccc1n2Cc1ccccc1O | 1110 nM
FC(F)(F)c1ccc(-c2ccc(CNC3CCN(CCN4CCOCC4)CC3)cc2)cc1 | 756 nM
CC(C)Oc1ccc(N2CCN(CCCCNC(=O)c3ccc(NC(=O)c4ccc(Cl)cc4)cc3)CC2)c(OC(C)C)c1 | 512 nM
Cc1cc(O)c(-c2cccc(Oc3ccc(Cl)cc3)c2)c(C)n1 | 736 nM
COc1cc(NC(=O)Nc2ccnc3ccccc23)cc(OC)c1 | 469 nM
CN(C)c1ccc(CN2CCC(CNC(=O)c3cc(-c4ccccc4Cl)cs3)C2)cc1 (centres undefined) | 1440 nM
CCCc1cc(NC2CCN(C)CC2)nc(Nc2ccc(F)cc2)n1 | 801 nM
Cc1c(CNCCCNc2cc(=O)c3ccccc3[nH]2)sc(-c2ccco2)c1Br | 1020 nM
O=C(NCCCCN1CCC(c2ccc3c(c2O)CCCC3)CC1)c1ccc(NC(=O)c2ccc(Cl)cc2)cc1 | 243 nM
COc1cccc2c(NN=Cc3cccc(Cl)c3)ccnc12 | 838 nM
O=C(NC1CCCCC1)N(Cc1ccccc1-c1ccc(CNCCc2ccccc2)cc1)C1CCN(Cc2ccccc2)CC1 | 930 nM
CC(C)(C)c1cc(NC2CC2)nc(-c2ccccn2)n1 | 719 nM
COCCNCc1ccc(-c2ccc(CNc3ccc4ncccc4c3)cc2)cc1 | 1040 nM
O=C(NOCc1ccccc1)c1cc(Cl)ccc1O | 1100 nM
COc1ccc(NC(=O)[C@H](CC(C)C)Nc2cc(C)nc(NCc3ccccc3C)n2)cc1 | 888 nM
COc1cc(C(=O)NCCCN2CCN(c3cc(Cl)ccc3OC)CC2)ccc1-c1nc2cc(Cl)c(Cl)cc2[nH]1 | 731 nM
Cc1sc(N2CCCCC2)nc1C(=O)Nc1ccc(F)cc1C(F)(F)F | 1150 nM
COc1cccc2c(Oc3ccccc3C)ccnc12 | 1230 nM
CN(C)CCn1cc(C(=O)c2cc(Cl)ccc2O)cc1-c1nc2ccccc2c(=O)[nH]1 | 634 nM
CCCCN(CCCC)CCCN(CCCN(CCCC)CCCC)c1cc(C)nc(Nc2ccc(Cl)cc2)n1 | 370 nM
O=C(CCc1ccco1)NC1CCN(CC2(c3ccc(Cl)cc3)CCC2)CC1 | 1450 nM
CCN(CC)c1nc(Nc2cc(C)ccc2C)nc(Nc2ccccc2O)n1 | 641 nM

Compound | XC50
c1ccc(Oc2ccc(Nc3ccnc(Nc4ccc(CN5CCOCC5)cc4)n3)cc2)cc1 | 941 nM
COc1ccccc1C1CCN(C2CCC(NC(=O)c3cc4ccccc4[nH]3)CC2)CC1 (centres undefined) | 1210 nM
Cc1cccc(-c2nc(Nc3ccncc3)c3ccc([N+](=O)[O-])cc3n2)n1 | 831 nM
CC(CCNc1c2ccccc2nc2ccccc12)N1CCN(C)CC1 (centres undefined) | 803 nM
O=C(C=Cc1ccc(Br)cc1)NC1CCC(CN2CCC(c3c[nH]c4ccccc34)CC2)CC1 (centres undefined) | 682 nM
Cn1cnc(CCNC(=O)c2ccc(-c3cccc(-c4nc5cc(C(F)(F)F)ccc5[nH]4)c3)cc2)c1 | 726 nM
Cc1cc(N2CCCC2)nc(Nc2ccc(NC(=O)COc3ccccc3)cc2)n1 | 647 nM
Cc1nc(C)c(-c2ccc(Oc3cccc(OC(F)(F)F)c3)cc2)c(O)c1Cl | 684 nM
COc1ccc2nccc([C@@H](O)CN3CCC(NCc4ccc5scnc5c4)CC3)c2c1 | 399 nM
COC(=O)c1cccc(CN(CCC(O)(C(F)(F)F)C(F)(F)F)C(=O)CC2CCCC2)c1 | 909 nM
Cc1cc2nc(-c3ccc(C(=O)NCc4ccc(C(C)(C)C)cc4)cc3)[nH]c2cc1C | 772 nM
COc1c(C2CCN(CCCCNC(=O)c3ccc(NC(=O)c4ccc(C#N)cc4)cc3)CC2)ccc2c1CCCC2 | 292 nM
COc1cccc(C(=O)C2CC2CN(C)CC(O)c2cc(C)c(OC)cc2C)c1 (centres undefined) | 1140 nM
O=C(/C=C/c1ccc(F)cc1)NC1CCC(CCN2CCc3ccccc3CC2)CC1 (centres undefined) | 1400 nM
COc1ccc2[nH]c(/C=C/c3cccc4ccc(C)nc34)nc2c1 | 792 nM
O=C(NC1CC1)c1ccc(N2CCC(Cc3ccccc3)CC2)c([N+](=O)[O-])c1 | 614 nM
C[C@@H]1CN(C(c2cccc(O)c2)c2cccc(C(=O)N(C)c3cccc(F)c3)c2)[C@@H](C)CN1C(c1cccc(O)c1)c1cccc(C(=O)N(C)c2cccc(F)c2)c1 (some centres undefined) | 918 nM
O=C(Cn1c(CCc2cccc(F)c2F)cc(=O)c2cccnc21)N(CCCn1ccnc1)Cc1ccc(-c2ccc(C(F)(F)F)cc2)cc1 | 797 nM
O=C(CSc1nnc(-c2ccccc2Br)[nH]1)c1c[nH]c2ccccc12 | 982 nM
CCNc1cc(C(=O)N[C@@H](Cc2ccccc2)[C@H](O)CNCCc2cc(OC)cc(OC)c2)cc(N2CCCCS2(=O)=O)c1 | 1140 nM
CC(C)c1ccc(CN2CCC(NC(=O)c3ccc(-c4ccccc4F)s3)CC2)cc1 | 1550 nM
C/C=C1\CN2CC[C@H]1C[C@@H]2[C@@H](O)c1ccnc2ccc(O)cc12 | 245 nM
Nc1ncnc2cc(-c3cccc(S(N)(=O)=O)c3)sc12 | 151 nM
CC1CCN(CC[C@H]2CCCN2S(=O)(=O)c2cccc(NC(=O)c3cc4ccccc4s3)c2)CC1 | 830 nM
Cc1cc(C2NC(=O)c3ccccc3N2)c(C)n1-c1ccc2c(c1)OCO2 (centres undefined) | 731 nM

Compound | XC50
Nc1nc(N)c2c(ccc3c2ccn3C2C=CCCC2)n1 (centres undefined) | 132 nM
COc1ccc(OC)c2c1CC1NCC2c2c(OC)ccc(OC)c21 (centres undefined) | 971 nM
CN1CCN(c2ccnc3ccc(NC(=O)Nc4ccc(Cl)cc4)cc23)CC1 | 112 nM
COc1cccc(CN(C(=O)Nc2ccccc2F)[C@H]2C[C@H]3C(=O)Nc4cc(F)ccc4C(=O)N3C2)c1 | 841 nM
COC(=O)c1cccc(N2CCN(CCCNC(=O)/C(=C/C=C/c3cc4cc(Cl)c(Cl)cc4[nH]3)OC)CC2)c1 | 667 nM
COc1ccc(C(=O)NCC(C)(C)c2nc(-c3ccc(Cl)c(O)c3)c(-c3ccncc3)[nH]2)cc1OCCN(C(C)C)C(C)C | 643 nM
COc1ccc2nccc(N(C)CC3(O)CCC(NCc4ccc5c(n4)NC(=O)CS5)CC3)c2n1 (centres undefined) | 700 nM
OC1CCC(Nc2ccc3ncc(-c4ccc(Cl)cc4)n3n2)CC1 (centres undefined) | 824 nM
CC(C)[C@@H](C(=O)NCc1cccc(C(F)(F)F)c1)N1C(=O)CCC1C(=O)Nc1ccc([N+](=O)[O-])cc1 (some centres undefined) | 934 nM
C=CCN1C(=O)C(C(C)=O)=C(O)C1c1ccccc1 (centres undefined) | 53.8 nM
Cc1cc(SC(C)(C)C)cc2c(Cl)c(C(N)=O)cnc12 | 1090 nM
CN1CCN(c2ccnc3cc4c(cc23)N(Cc2ccccc2)CC4)CC1 | 1140 nM
CCCN1CCN(c2cc(NCC)c3c4c(onc24)-c2ccccc2C3=O)CC1 | 1060 nM
O=C(Nc1ccc2c(c1)CCN(C1CCC1)CC2)c1ccc(-c2cn3ccccc3n2)cc1 | 879 nM
COc1ccc(Nc2nccc(N3CCC(NC(=O)c4cc5ccccc5s4)C3)n2)cc1 (centres undefined) | 759 nM
COc1ccc2nccc(N3CCC(SCCNCc4ccc5c(n4)NC(=O)CS5)C3)c2n1 (centres undefined) | 253 nM
N#Cc1cccc(NC(=O)c2cccc(S(=O)(=O)NC3CCN(CC4CCCCC4)C3)c2)c1 (centres undefined) | 578 nM
Cc1ccc(Cn2cnc3cc(C(=O)Nc4ccc(-c5cccc(CN(C)C)c5)cc4)ccc3c2=O)o1 | 625 nM
CC(=O)c1cccc2c(NC(=O)Nc3ccc4nccc(N5CCN(C)CC5)c4c3)cccc12 | 400 nM
O=C(NCc1ccc(F)cc1)Nc1ccc(-c2ccc(-c3nc4ccccc4[nH]3)cc2)cc1 | 90.7 nM
CC(C)NCC(O)COc1ccc(Cc2ccc(OCC(O)CNC(C)C)cc2)cc1 (centres undefined) | 654 nM
O=C(Nc1cccc(-c2ccc(CN3CCCC3)cc2)c1)c1ccc(Cl)cc1 | 427 nM
Cc1cccc2sc(N(CCCn3ccnc3)C(=O)C=Cc3cccs3)nc12 | 1280 nM
Cc1cc(F)ccc1[C@H]1C[C@H](N2CCOCC2)CCN1C(=O)N(C)[C@@H](C)c1cc(C(F)(F)F)cc(C(F)(F)F)c1 | 764 nM
